This assay relates to KHOS-NP. In words: relative viability vs DMSO control (72 h) (fraction); higher = more viable cells. Summed up: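 Sarcoma cell lines in 384-well plates, seeded to reach 80–90% confluence, were given compound after 24 h and kept 72 h at 37 °C, 5% CO2, with 0.1% DMSO vehicle and a 5 µM positive control. Relative viability came from ATPLite as percent growth, averaged over up to triplicate wells. On the rescaled values, 1 equals full and 0 equals none.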

The structures appear in SMILES notation. ± gives the standard deviation of the averaged measurements.

Consider `C=CC(=O)Nc1cccc(Oc2nc(Nc3ccc(N4CCN(C)CC4)cc3)nc3ccsc23)c1` [Olmutinib], for which the relative viability reads like this: (0.00017 µM) 1.058 ± 0.01; (0.00051 µM) 1.06 ± 0.011; (0.00152 µM) 1.068 ± 0.0024; (0.00457 µM) 1.067 ± 0.0084; (0.01372 µM) 1.07 ± 0.019; (0.04115 µM) 1.08 ± 0.026. Further, the relative viability reads like this: (0.1235 µM) 1.054 ± 0.0094; (0.3704 µM) 1.074 ± 0.0078; (1.111 µM) 1.06 ± 0.017; (3.333 µM) 1.04 ± 0.029; (10 µM) 0.926 ± 0.081.
On to `CNC(=O)c1cc(Oc2ccc(NC(=O)Nc3ccc(Cl)c(C(F)(F)F)c3)c(F)c2)ccn1` [Regorafenib], for which the relative viability came to 1.09 ± 0.013 (0.00017 µM); 1.11 ± 0.012 (0.00051 µM); 1.12 ± 0.019 (0.00152 µM); 1.12 ± 0.013 (0.00457 µM); 1.112 ± 0.0027 (0.01372 µM); 1.1 ± 0.016 (0.04115 µM). The relative viability is 0.787 ± 0.57 (0.1235 µM); 1.07 ± 0.018 (0.3704 µM); 0.938 ± 0.055 (1.111 µM); 0.569 ± 0.014 (3.333 µM); 0.238 ± 0.083 (10 µM).
In the case of `COc1cc2c(cc1O)CCN[C@]21CS[C@@H]2c3c(OC(C)=O)c(C)c4c(c3[C@H](COC1=O)N1[C@@H]2[C@H]2c3c(cc(C)c(OC)c3O)C[C@@H]([C@@H]1O)N2C)OCO4` [Trabectedin], the relative viability by setting is: (2 pM) 1.11 ± 0.026; (5 pM) 1.11 ± 0.03; (15 pM) 1.11 ± 0.028; (50 pM) 1.09 ± 0.018; (0.00014 µM) 1.04 ± 0.029; (0.00041 µM) 0.0507 ± 0.011. In addition, the relative viability (0.0012 µM) was 0.0847 ± 0.0079; the relative viability (0.0037 µM) is 0.102 ± 0.0031; the relative viability (0.011 µM) was 0.0529 ± 0.0034; the relative viability (200 fM) stood at 1.1 ± 0.03; the relative viability (600 fM) is 1.12 ± 0.022.
